Data from the NIST ThermoML archive (doi:10.1016/j.jct.2014.02.016).
Numbers after ± are expanded uncertainties.

Assays:
[1] = heat capacity at constant pressure per volume; xn = mol fraction of the nth substance listed; settings: 100 kPa, Liquid, DSC Calorimetry, x1 = 0.244
[2] = refractive index (other wavelength) (dimensionless); xn = mol fraction of the nth substance listed; settings: 100 kPa, Liquid, Wavelength=632.8 nm, Angle minimization by sell rotation

`CCCCCCCCCCCCC` [tridecane] + COC(=O)OC showed a heat capacity ([1]; 303.5 K) of 2056000 ± 110000 J/K/m3, a heat capacity ([1]; 303.6 K) of 2019000 ± 110000 J/K/m3 and a heat capacity ([1]; 303.7 K) of 1992000 ± 110000 J/K/m3. For the same compound, the heat capacity ([1]; 303.8 K) was 1969000 ± 100000 J/K/m3, the heat capacity ([1]; 303.9 K) was 1958000 ± 100000 J/K/m3 and the heat capacity ([1]; 304 K) was 1946000 ± 100000 J/K/m3. The heat capacity ([1]; 304.2 K) was 1942000 ± 100000 J/K/m3, the heat capacity ([1]; 304.6 K) was 1920000 ± 100000 J/K/m3 and the heat capacity ([1]; 305 K) was 1910000 ± 100000 J/K/m3. It also gave a heat capacity ([1]; 306 K) of 1891000 ± 100000 J/K/m3, a heat capacity ([1]; 307 K) of 1874000 ± 100000 J/K/m3 and a heat capacity ([1]; 308 K) of 1870000 ± 100000 J/K/m3. The heat capacity ([1]; 309 K) was 1860000 ± 99000 J/K/m3, the heat capacity ([1]; 310 K) was 1850000 ± 99000 J/K/m3 and the heat capacity ([1]; 311 K) was 1843000 ± 98000 J/K/m3. The heat capacity ([1]; 312.1 K) was 1839000 ± 98000 J/K/m3, the heat capacity ([1]; 313 K) was 1837000 ± 98000 J/K/m3 and the heat capacity ([1]; 315 K) was 1830000 ± 98000 J/K/m3. The heat capacity ([1]; 316 K) was 1827000 ± 98000 J/K/m3, the heat capacity ([1]; 317 K) was 1825000 ± 97000 J/K/m3 and the heat capacity ([1]; 318 K) was 1824000 ± 97000 J/K/m3. For the same compound, the heat capacity ([1]; 319.01 K) was 1821000 ± 97000 J/K/m3, the heat capacity ([1]; 320 K) was 1819000 ± 97000 J/K/m3 and the heat capacity ([1]; 321 K) was 1817000 ± 97000 J/K/m3. For the same compound, the heat capacity ([1]; 322 K) was 1815000 ± 97000 J/K/m3, the heat capacity ([1]; 323 K) was 1816000 ± 97000 J/K/m3 and the heat capacity ([1]; 324 K) was 1813000 ± 97000 J/K/m3. For the same compound, the heat capacity ([1]; 325 K) was 1812000 ± 97000 J/K/m3, the heat capacity ([1]; 326 K) was 1810000 ± 97000 J/K/m3 and the heat capacity ([1]; 327 K) was 1809000 ± 97000 J/K/m3. The heat capacity ([1]; 328 K) was 1809000 ± 97000 J/K/m3, the heat capacity ([1]; 329 K) was 1808000 ± 97000 J/K/m3 and the heat capacity ([1]; 330 K) was 1806000 ± 96000 J/K/m3. For the same compound, the heat capacity ([1]; 331 K) was 1805000 ± 96000 J/K/m3, the heat capacity ([1]; 332 K) was 1805000 ± 96000 J/K/m3 and the heat capacity ([1]; 333 K) was 1804000 ± 96000 J/K/m3. For the same compound, the heat capacity ([1]; 334 K) was 1802000 ± 96000 J/K/m3, the heat capacity ([1]; 335 K) was 1801000 ± 96000 J/K/m3 and the heat capacity ([1]; 336 K) was 1802000 ± 96000 J/K/m3. The heat capacity ([1]; 337 K) was 1801000 ± 96000 J/K/m3, the heat capacity ([1]; 338 K) was 1798000 ± 96000 J/K/m3 and the heat capacity ([1]; 339 K) was 1797000 ± 96000 J/K/m3. The heat capacity ([1]; 340 K) was 1799000 ± 96000 J/K/m3, the heat capacity ([1]; 341.01 K) was 1798000 ± 96000 J/K/m3 and the heat capacity ([1]; 342 K) was 1799000 ± 96000 J/K/m3. It also gave a refractive index ([2]; 293.35 K, x1 = 0.073) of 1.3756 ± 0.0003, a refractive index ([2]; 293.35 K, x1 = 0.57) of 1.4085 ± 0.0003 and a refractive index ([2]; 294.57 K, x1 = 0.078) of 1.3756 ± 0.0003. The refractive index ([2]; 294.57 K, x1 = 0.553) was 1.4072 ± 0.0003, the refractive index ([2]; 295.8 K, x1 = 0.084) was 1.3756 ± 0.0003 and the refractive index ([2]; 295.8 K, x1 = 0.532) was 1.4057 ± 0.0003. For the same compound, the refractive index ([2]; 296.97 K, x1 = 0.091) was 1.3757 ± 0.0003, the refractive index ([2]; 296.97 K, x1 = 0.511) was 1.4042 ± 0.0003 and the refractive index ([2]; 298.06 K, x1 = 0.099) was 1.376 ± 0.0003. For the same compound, the refractive index ([2]; 298.06 K, x1 = 0.492) was 1.4028 ± 0.0003, the refractive index ([2]; 299.12 K, x1 = 0.108) was 1.3764 ± 0.0003 and the refractive index ([2]; 299.12 K, x1 = 0.467) was 1.4011 ± 0.0003. For the same compound, the refractive index ([2]; 299.84 K, x1 = 0.115) was 1.3767 ± 0.0003, the refractive index ([2]; 299.84 K, x1 = 0.452) was 1.4 ± 0.0003 and the refractive index ([2]; 300.52 K, x1 = 0.124) was 1.3772 ± 0.0003. The refractive index ([2]; 300.52 K, x1 = 0.432) was 1.3987 ± 0.0003, the refractive index ([2]; 301.09 K, x1 = 0.132) was 1.3777 ± 0.0003 and the refractive index ([2]; 301.09 K, x1 = 0.415) was 1.3975 ± 0.0003. It also gave a refractive index ([2]; 301.5 K, x1 = 0.141) of 1.3783 ± 0.0003, a refractive index ([2]; 301.5 K, x1 = 0.398) of 1.3964 ± 0.0003 and a refractive index ([2]; 301.8 K, x1 = 0.147) of 1.3787 ± 0.0003. The refractive index ([2]; 301.8 K, x1 = 0.386) was 1.3956 ± 0.0003, the refractive index ([2]; 302.21 K, x1 = 0.158) was 1.3795 ± 0.0003 and the refractive index ([2]; 302.21 K, x1 = 0.365) was 1.3942 ± 0.0003. It also gave a refractive index ([2]; 302.36 K, x1 = 0.165) of 1.38 ± 0.0003, a refractive index ([2]; 302.36 K, x1 = 0.356) of 1.3936 ± 0.0003 and a refractive index ([2]; 302.48 K, x1 = 0.17) of 1.3804 ± 0.0003. For the same compound, the refractive index ([2]; 302.48 K, x1 = 0.348) was 1.3931 ± 0.0004, the refractive index ([2]; 302.56 K, x1 = 0.176) was 1.3808 ± 0.0003 and the refractive index ([2]; 302.56 K, x1 = 0.341) was 1.3926 ± 0.0003. The refractive index ([2]; 302.63 K, x1 = 0.18) was 1.3811 ± 0.0003, the refractive index ([2]; 302.63 K, x1 = 0.335) was 1.3922 ± 0.0003 and the refractive index ([2]; 302.7 K, x1 = 0.184) was 1.3814 ± 0.0003. It also gave a refractive index ([2]; 302.7 K, x1 = 0.329) of 1.3918 ± 0.0003, a refractive index ([2]; 302.79 K, x1 = 0.191) of 1.382 ± 0.0003 and a refractive index ([2]; 302.79 K, x1 = 0.317) of 1.391 ± 0.0003. It also gave a refractive index ([2]; 302.83 K, x1 = 0.195) of 1.3823 ± 0.0003, a refractive index ([2]; 302.83 K, x1 = 0.311) of 1.3906 ± 0.0003 and a refractive index ([2]; 302.86 K, x1 = 0.202) of 1.3828 ± 0.0003. It also gave a refractive index ([2]; 302.86 K, x1 = 0.303) of 1.3901 ± 0.0003, a refractive index ([2]; 302.89 K, x1 = 0.206) of 1.3831 ± 0.0003 and a refractive index ([2]; 302.89 K, x1 = 0.297) of 1.3897 ± 0.0003. It also gave a refractive index ([2]; 302.91 K, x1 = 0.211) of 1.3835 ± 0.0003, a refractive index ([2]; 302.91 K, x1 = 0.291) of 1.3893 ± 0.0003 and a refractive index ([2]; 302.92 K, x1 = 0.214) of 1.3837 ± 0.0003. The refractive index ([2]; 302.92 K, x1 = 0.289) was 1.3891 ± 0.0003, the refractive index ([2]; 302.93 K, x1 = 0.218) was 1.384 ± 0.0003 and the refractive index ([2]; 302.93 K, x1 = 0.284) was 1.3888 ± 0.0003. It also gave a refractive index ([2]; 302.94 K, x1 = 0.223) of 1.3844 ± 0.0003, a refractive index ([2]; 302.94 K, x1 = 0.226) of 1.3846 ± 0.0003 and a refractive index ([2]; 302.94 K, x1 = 0.275) of 1.3882 ± 0.0003. For the same compound, the refractive index ([2]; 302.94 K, x1 = 0.278) was 1.3884 ± 0.0003, the refractive index ([2]; 304.39 K, x1 = 0.097) was 1.3728 ± 0.0003 and the refractive index ([2]; 304.39 K, x1 = 0.196) was 1.3818 ± 0.0003. For the same compound, the refractive index ([2]; 304.39 K, x1 = 0.297) was 1.389 ± 0.0003, the refractive index ([2]; 304.39 K, x1 = 0.401) was 1.3953 ± 0.0003 and the refractive index ([2]; 304.39 K, x1 = 0.497) was 1.4002 ± 0.0003. The refractive index ([2]; 304.39 K, x1 = 0.583) was 1.404 ± 0.0003, the refractive index ([2]; 304.39 K, x1 = 0.71) was 1.4094 ± 0.0003 and the refractive index ([2]; 304.39 K, x1 = 0.795) was 1.4126 ± 0.0003. For the same compound, the refractive index ([2]; 304.39 K, x1 = 0.899) was 1.4163 ± 0.0003.
